Measured values published in US5279543A, “Device for iontophoretic non-invasive sampling or delivery of substances” (priority 1992, dated 1994).
Values joined by “and” are separate entries in the source; they are usually repeats but may differ in a detail not shown here. Equal values may be shown once. “Also recorded” adds a separate entry of the source. Where a name gives a salt, the structure may show the parent alone.

Assays:
[1] = In vitro iontophoretic delivery of P.S.O.S. from chamber 16A; format: in vitro ADME
Description: (b) P.S.O.S. (Potassium Sucrose Octa Sulfate) P.S.O.S., 0.6 ml of 1.5 mg/ml solution in a boric buffer is placed in chamber 16A and boric acid buffer alone is placed in chamber 16C of FIG. 1, 2 or 3. Using a direct current of 0.5 mA (0.65 mA/cm^2) transport of P.S.O.S. is observed up to 5 μg/hr.

[2] = charged and uncharged TRH; excised nude mouse skin; cited from earlier work
[3] = Iontophoretic sampling in vitro (Example 2); format: in vitro ADME, hairless mouse; conditions: 0.5 mA, about 2 hr, about 0.63 mA/cm^2; various concentrations; mean of at least two experiments
Description: Iontophoretic sampling consists of pulling out chemical substances from the body through the skin by means of electricity. In order to test this method, an iontophoretic in-vitro cell is used (FIGS. 1, 2, 3 or 4). Full-thickness hairless mouse skin 13 (8-13 weeks old) is placed between the two parts of the cell. Solutions of radiolabelled drugs of known concentration in phosphate-buffered saline are circulated 10 ml/hr. beneath the skin. On top of the skin there are two self-adhesive gel electrodes, connected to a power supply which is set up in constant current mode (0.5 mA). Current is applied for measured length of time (about 2 hr.) corresponding to about 0.63 mA/cm^2. After the experiment the gel electrodes are taken for scintillation counting, which reflects the amount of drug absorbed by the gel electrodes. Using different drug concentrations with the same electrical current for the same period of time, a linear correlation between the amount is collected by the electrode and drug concentration is expected.

[4] = Description: (1) Leakage tests (without current) using dye and silicone rubber than skin; (2) leakage tests using dye and skin (without current); and (3) iontophoretic tests using the drug solutions and skin (with and without current). Procedures (1) and (2) were evaluated by visually inspecting the cell. […] The activity of the skin 13 and of the samples taken from the receptor chamber was determined post-experimentally. Each experiment lasts approximately 24 hours, ±2 hours, with samples collected hourly. Receptor fluid 17 was magnetically stirred (27), and the collection flow rate was 10 ml/hr.
[5] = In vivo sampling with iontophoresis cell on human forearm; conditions: forearm of person; versus in vitro case
Source text: The procedure and description above for in vitro sampling is used except that the membrane is replaced by the top of the forearm of a human being. The sampling cell used is the one in FIGS. 7, 8, 9A and 9B.

[6] = In vivo iontophoretic sampling (biosensing) in dog
Source text: The sampling of the radioactive clonidine in vitro is described above. […] The operator is alerted when to administer an injection clondine to maintain the desired level of clonidine in the test dog.

[7] = In vitro iontophoretic sampling of glucose through skin into gel electrodes; format: in vitro ADME, hairless mouse (Skh: hr-1); conditions: for Amount Glucose Measured In Gel Electrode per Sample: four time periods; for Iontophoretic Flux sample (amount of glucose sampled in 2 hours): 0.5 mA, (+) electrode; for Sample-glucose: four cells
Description: In order to show the ability of the method to sample glucose through the skin, in vitro studies are conducted using hairless mouse skin as the skin model and the iontophoretic diffusion cells in FIGS. 1-13. The results here are applicable to in-vivo sampling from a mammal, particularly a human being. Two self-adhesive gel electrodes (Kenzgelelc, by Nitto Electric Industry Co., Limited, Osaka, Japan) are placed on the same side of a singe continuous piece of hairless mouse skin (full thickness-about 0.5 mm) (Skh: hr-1, 8-13 weeks old). Under the skin, radiolabelled (^14 C-U)-glucose having known concentration in solution in phosphate-buffered saline (0.9% sodium chloride) is perfused, pH of phosphate is about 7.4. Temperature is ambient.
In the first set of experiments, following the assembly of the cell and initiation of the glucose solution perfusion, current is applied (0.5 milliampere) for 2 hours. The voltage may vary from about 1 to 10 volts. Usually, it is about 5 volts. The important parameter to keep constant is the applied current. The voltage may vary based upon the electrical resistance of the sampling site. Then the gel electrodes are disconnected and tested for radioactivity content by conventional liquid scintillation counting. […]. […] (Electrical conditions in the experiments--same constant direct current (dc) but as iontophoretic delivery may also operate in pulsed current, etc., (the pulsed approach should also perform in a predictable way for sampling).
the second set of experiments, using similar experimental set-up as before, a (^14 C-U)-glucose solution of 0.34 mg/ml glucose is phosphate buffered saline is perfused, and the gel electrodes are replaced every 30 minutes.
Since the skin for each single experiment comes from a different mouse, evaluation of each single diffusion cell (means--samples collected through the same piece of skin), eliminating the first sample (the first 0.5 hr. is slightly higher than the others due to the experimental conditions) was done. […]

O=S(=O)(O)OC[C@H]1O[C@@](COS(=O)(=O)O)(O[C@H]2O[C@H](COS(=O)(=O)O)[C@@H](OS(=O)(=O)O)[C@H](OS(=O)(=O)O)[C@H]2OS(=O)(=O)O)[C@@H](OS(=O)(=O)O)[C@@H]1OS(=O)(=O)O [P.S.O.S., Potassium Sucrose Octa Sulfate]
Transport of P.S.O.S. ([1]; direct current 0.5 mA (0.65 mA/cm^2), 0.6 ml of 1.5 mg/ml solution): up to 5 μg/hr | Amount of P.S.O.S. transferred ([1]; printed 'with a current' (comparison, same configuration)): only a few nanograms

NC(=O)[C@@H]1CCCN1C(=O)[C@H](Cc1cnc[nH]1)NC(=O)[C@@H]1CCC(=O)N1 [TRH, thyrotropin releasing hormone]
Iontophoretic flux across excised tissue compared with passive diffusion [2]: greater than those obtained by passive diffusion alone

Clc1cccc(Cl)c1N=C1NCCN1 [clonidine-HCl, Clonidine HCl]
Linearity of amount sampled versus drug concentration (FIG. 11 and 12) [3]: linearity of the results | Rate of penetration through the skin with current ([4]; 0.63 mA/cm^2): 15.0 μg/cm^2 /hr | Mean rate of diffusion into the receptor phase (passive transport rate) ([4]; no current): 0.05 μg/cm^2 /hr | Drug found in the buffered saline of chamber 16C ([4]; no current, after 20 hours): no drug was found | Amount of labelled drug in the buffered saline of chamber 16C ([4]; with current 0.63 mA/cm^2, approximately 20 hours): 5 µg | Amount of clonidine sampled in vivo [5]: comparable to that observed in the in vitro case | Level of radioactive clonidine measured iontophoretically [6]: quickly and accurately

O=C[C@H](O)[C@@H](O)[C@H](O)[C@H](O)CO [glucose]
S.D. for individual diffusion cells (individual mouse) ([7]; 0.34 mg/ml glucose, except cell #3): 4 to 9% | Amount of glucose sampled, average of four separate cells ([7]; 0.34 mg/ml glucose, first 0.5 hr sample eliminated): 0.79 to 0.74 μg | Ratio A/B of glucose sampled ([7]; 0.153 vs 1.07 mg/ml (concentration ratio 0.143)): 0.144 | Sample-glucose, Average ([7]; average of samples 1-5 (0 - 2 1/2 hr), 0.34 mg/ml glucose, 15 ml/hr): 0.80 ± 0.19 µg | Amount Glucose Measured In Gel Electrode per Sample ([7]; cell 1, 0.34 mg/ml glucose, 15 ml/hr): 0.825 ± 0.041 µg | Amount Glucose Measured In Gel Electrode per Sample ([7]; cell 2, 0.34 mg/ml glucose, 15 ml/hr): 0.963 ± 0.090 µg | Amount Glucose Measured In Gel Electrode per Sample ([7]; cell 3, 0.34 mg/ml glucose, 15 ml/hr): 0.530 ± 0.115 µg | Amount Glucose Measured In Gel Electrode per Sample ([7]; cell 5, 0.34 mg/ml glucose, 15 ml/hr): 0.727 ± 0.033 µg | Correlation between glucose concentration under/in the skin and amount of glucose sampled ([7]; fixed sampling time, same electrical conditions): near-perfect linear correlation; also recorded: clear correlation | Iontophoretic Flux sample (amount of glucose sampled in 2 hours) ([7]; glucose concentration 0.153 mg/ml): 0.705 μg/2 hr and 0.705 +/- 0.095 μg/2 hr | Iontophoretic Flux sample (amount of glucose sampled in 2 hours) ([7]; glucose concentration 1.07 mg/ml): 4.9 μg/2 hr and 4.9 +/- 0.7 μg/2 hr | Sample-glucose ([7]; sample 1, 0 - 1/2 hr, 0.34 mg/ml glucose, 15 ml/hr): 0.97 ± 0.12 µg | Sample-glucose ([7]; sample 2, 1/2 - 1 hr, 0.34 mg/ml glucose, 15 ml/hr): 0.79 ± 0.09 µg | Sample-glucose ([7]; sample 3, 1 - 1 1/2 hr, 0.34 mg/ml glucose, 15 ml/hr): 0.76 ± 0.10 µg | Sample-glucose ([7]; sample 4, 1 1/2 - 2 hr, 0.34 mg/ml glucose, 15 ml/hr): 0.75 ± 0.21 µg | Sample-glucose ([7]; sample 5, 2 - 2 1/2 hr, 0.34 mg/ml glucose, 15 ml/hr): 0.74 ± 0.24 µg
